This is an account of results in patent publication US20130331332A1, “COMPOSITION COMPRISING PEROXISOME PROLIFERATOR-ACTIVATED RECEPTOR-GAMMA” (MERZ PHARMA GmbH & Co. KGaA, priority 2011, published 2013).

What all share (assay type): cell-based, human
Data set [1] relates to adipose-derived stem cells. Nature of the data set: Cell proliferation of adipose-derived stem cells, MTT photometric assay (Example 4). Conditions: 6 days, FIG. 1. As for the experimental part:
Cell proliferation was determined by a photometric assay using MTT (3-(4,5-dimethylthiazol-2-yl)-2,5-diphenyltetrazolium bromide). In brief, human adipose-derived stem cells were isolated from 5 different donors according to example 3 and 1.5×10^4 cells were seeded in 96-well-plates. Cell samples were used in quadruplicate in each experiment. The human adipose-derived stem cells were cultured for 6 days in two different media containing PPARγ or control media. Recombinant PPARγ (recPPARγ) (Thermo Scientific-Pierce, PPARgamma human) was solved in dimethyl sulfoxide (DMSO) at a concentration of 270 µg/ml and used as a stock solution. Working solutions were prepared by dilution using a factor of 1:100 for a final concentration of 2.7 μg/ml, a factor of 1:270 for a final concentration of 1 μg/ml, a factor of 1:540 for a final concentration of 0.5 μg/ml, and a factor of 1:2700 for a final concentration of 0.1 μg/ml. […]
After 6 days of culturing, the cells were incubated in PBS containing MTT at 37° C. for 4 hours. Afterwards, the medium was removed, 0.04 N HCl was added, and absorbance was measured in a microplate reader at 550 nm versus 650 nm. […]
In general terms: Formazan colour is commonly taken as a measure of viable cells.

Data set [2] has as its system adipose-derived stem cells (ASCs). Nature of the data set: Oil-O-Red staining of fat vacuoles in adipose-derived stem cells (Example 6). The conditions noted are these: for adipogenic differentiation / development of fat vacuoles (Oil-O-Red staining): 3 weeks of incubation in NM; for formation of fat vacuoles / adipogenic differentiation (Oil-O-Red staining): PPARγ 2.7, 1, 0.5 or 0.1 μg/ml. As for the experimental part: The induction of adipogenic differentiation by recombinant PPARγ was verified by Oil-O-Red staining of fat vacuoles. Human adipose-derived stem cells (ASCs) from 4 different donors were isolated as described in example 3. The cells were cultured for 2 weeks in “NM”, a standard culture medium of Dulbecco's modified Eagle's medium with a physiologic glucose concentration of 100 mg/dl (DMEM, Sigma, Germany) supplemented with 10% fetal calf serum (FCS; PAA, Germany) and medium was changed every 5-6 days. Cells were cultured in NM containing 2.7 μg/ml, 1 μg/ml, 0.5 μg/ml, or 0.1 μg/ml of PPARγ (Thermo Scientific-Pierce, PPARgamma human), respectively, or 5 μM Pioglitazone (Sigma-Aldrich, Germany), or 5 μM Pioglitazone and 2.7 μg/ml PPARγ, or 5 μM Pioglitazone and 0.1 μg/ml PPARγ. Controls were cultured in NM.
After 2 weeks in culture the formation of lipid droplets which is indicative of the ability to differentiate was verified by Oil-O-Red staining. Oil-O-Red is a fat-soluble dye used for the staining of neutral triglycerides. […] After fixation with 4% paraformaldehyde for 20 minutes, the cells were incubated for a staining time of 1 hour with a 0.5% Oil-O-Red (Sigma) solution in Isopropanol/glycerine. The Oil-O-Red staining was evaluated microscopically.
Further cells were cultured in NM containing 5 μM Pioglitazone (Sigma-Aldrich, Germany), or 5 μM Pioglitazone and 2.7 μg/ml PPARγ, or 5 μM Pioglitazone and 0.1 μg/ml PPARγ.
Further cell samples were cultured in “AM-” composed of DMEM with 4500 mg/l glucose, 10 μM insulin (Novo Nordisk), 1 μM dexamethasone (Ratiopharm), 10% FCS. Cell samples were cultured in AM- containing 2.7 μg/ml, 1 μg/ml, 0.5 μg/ml, or 0.1 μg/ml of PPARγ, respectively, or 5 μM Pioglitazone, or 5 μM Pioglitazone and 2.7 μg/ml PPARγ. Negative control cells were cultured in AM-. Cells incubated with DMEM with 4500mg/l glucose, 10 μM insulin (Novo Nordisk), 1 μM dexamethasone (Ratiopharm), 10% FCS and 1 mM isobutyl-methylxanthin (Sigma) and 200 μM indometacin (Fluka) were used as a positive induction control.
Culturing of cells in NM and in AM- containing the different PPARγ concentrations as given above was repeated with an incubation period of 3 weeks.

The test system of data set [3] is adipose-derived stem cells. Nature of the data set: Photometric measurement (optical density) of adipogenic differentiation in adipose-derived stem cells (Example 5). The conditions noted are these: 2 weeks of culturing, FIG. 2. As for the experimental part: The induction of adipogenic differentiation by recombinant PPARγ was tested in human adipose-derived stem cells from 4 different donors isolated as described in example 3. The cells were cultured for 2 weeks, and media were changed every 5-6 days. Cell samples were seeded with 1.5×10^4 cells in 96-well-plates. Recombinant PPARγ (recPPARγ) (Thermo Scientific-Pierce, PPARgamma human) was solved in dimethyl sulfoxide (DMSO) at a concentration of 270 µg/ml and used as a stock solution. Working solutions were prepared by dilution using a factor of 1:100 for a final concentration of 2.7 μg/ml, a factor of 1:270 for a final concentration of 1 μg/ml, a factor of 1:540 for a final concentration of 0.5 μg/ml, and a factor of 1:2700 for a final concentration of 0.1 μg/ml.
Cells were cultured in two different media, either in “NM”, a standard culture medium of Dulbecco's modified Eagle's medium with a physiologic glucose concentration of 100 mg/dl (DMEM, Sigma, Germany) supplemented with 10% fetal calf serum (FCS; PAA, Germany), or in “AM-” composed of DMEM with 4500 mg/l glucose (high glucose) and 10 μM insulin (Novo Nordisk), 1 μM dexamethasone (Ratiopharm), and 10% FCS. Cell samples were cultured in NM containing 2.7 μg/ml, 1 μg/ml, 0.5 μg/ml, or 0.1 μg/ml of PPARγ, respectively. […] After 2 weeks of culturing, the optical density was measured in a microplate reader. […]

Data set [4] relates to adipose-derived stem cells (ASC). The experiment in a line: Induction of adipocyte differentiation by PPARgamma, oil red O staining (Example 2). The conditions noted are these: PPARgamma 0.0001%, 0.01% and 1% by weight in culture media; 5 days incubation, further 9 days in culture; oil red O staining of lipid droplets. As for the experimental part:
The ability of peroxisome proliferator-activated receptor-gamma to induce differentiation of adipocytes was studied in adipose-derived stem cells (ASC). Human adipose-derived stem cells were obtained by liposuction and cultured following a published procedure (Crandall et al, Endocrinology 140:154-8, 1999). In brief, adipose tissue was digested with 2 mg/mL collagenase in Krebs-Ringer-bicarbonate buffer (pH 7.4). The preadipocyte fraction was resuspended in growth medium, transferred to a culture flask, and maintained in an incubator at 37° C., and 5% CO2. Cell attachment was allowed for 16-20 h and afterwards the cells that had not adhered were removed.
Peroxisome proliferator-activated receptor-gamma (PPARgamma) was added to respective final concentrations of 0.0001%, 0.01% and 1% by weight to the culture media 24 hours after the cells were seeded. The media was changed every three days and supplemented with fresh peroxisome proliferator-activated receptor-gamma. The cells were incubated with peroxisome proliferator-activated receptor-gamma for 5 days. Afterwards peroxisome proliferator-activated receptor-gamma was removed, and the cells were kept for further 9 days in culture for observation of lipid droplet formation, which is indicative of the ability to differentiate. Controls were run in medium without peroxisome proliferator-activated receptor-gamma. […]

`CCc1ccc(CCOc2ccc(CC3SC(=O)NC3=O)cc2)nc1` (racemic) [Pioglitazone, (RS)-5-{p-[2-(5-ethyl-2-pyridyl)ethoxy]benzyl}-2,4-thiazolidinedione, reference compound]: the “cell proliferation (MTT assay)” value in data set [1] (5 μM Pioglitazone alone, NM standard medium) is “no effect”. In addition, the “adipogenic differentiation / development of fat vacuoles (Oil-O-Red staining)” value in data set [2] is recorded as “only slightly induced differentiation”.
As to “PPARγ: Recombinant PPARγ protein (Thermo Scientific-Pierce, PPARgamma human); nuclear hormone receptor transcription factor”, the “cytotoxic effect on cells (cell number by optical density)” value in data set [3] (2.7-0.1 μg/ml PPARγ) is listed as “no cytotoxic effect”. Further, the “differentiation and proliferation (increase in optical density)” value in data set [3] (both media (NM and AM-)) is “stimulated the differentiation and proliferation”. In addition, the Degree of differentiation entry in data set [4] is given as “++ to +++”. The “cell proliferation (MTT assay)” value in data set [1] (2.7, 1, 0.5 or 0.1 μg/ml PPARγ, both media (NM and AM-)) is recorded as “stimulated the proliferation of the adipose-derived stem cells in a dose-dependent manner”. For the same molecule, the “formation of fat vacuoles / adipogenic differentiation (Oil-O-Red staining)” value is “able to induce the formation of fat vacuoles” in data set [2] (2 weeks of culture in AM- medium) and “able to induce the formation of fat vacuoles” in data set [2] (2 weeks of culture in NM, Pioglitazone 5 μM, FIG. 3). Moreover, the “formation of fat vacuoles and adipogenic differentiation (Oil-O-Red staining)” value in data set [2] (3 weeks of culture in AM- medium) is “induced the formation of fat vacuoles and adipogenic differentiation”. Also, in data set [2], the “adipogenic differentiation / development of fat vacuoles (Oil-O-Red staining)” value is recorded as “heavily induced adipogenic differentiation”.
